Results on five molecules are retold here after US5998488A, “Ophthalmic composition” (Lion Corporation, priority 1994, dated 1999).

The test can be described thus: Benzalkonium chloride adsorption test (soft contact lenses, lens not given). It counts as physicochemical. The conditions noted are these: α-cyclodextrin replaced by the other cyclodextrin. As to the method: The percent inhibition of benzalkonium chloride adsorption to commercially available soft contact lenses was determined by the following test.
Benzalkonium chloride adsorption test A 30-ml vial was charged with 10 ml of the solution and a soft contact lens was immersed therein. In a constant temperature tank at 25° C., the vial was shaken for 24 hours. After the contact lens was removed from the vial, the concentration of benzalkonium chloride in the solution was quantitatively determined by high performance liquid chromatography. A percent inhibition of adsorption was calculated according to the following formula.
As a control, the above procedure was repeated except that no contact lens was immersed.
Inhibition of adsorption (%)=(concentration of benzalkonium chloride in sample solution)/(concentration of benzalkonium chloride in control solution)×100
Solutions of the formulation shown in Table 7 were prepared to a total amount of 1,000 g in a conventional manner as used in the preparation of eye drops. Ophthalmic solutions of Examples 2 to 13 were obtained. The ophthalmic solutions were subject to the same tests as in Experiments 1 and 3. In the test of Experiment 3, the ophthalmic solutions were evaluated for antimicrobial activity according to the same criterion as before.
Take `OC[C@H]1O[C@@H]2O[C@H]3[C@H](O)[C@@H](O)[C@@H](O[C@H]4[C@H](O)[C@@H](O)[C@@H](O[C@H]5[C@H](O)[C@@H](O)[C@@H](O[C@H]6[C@H](O)[C@@H](O)[C@@H](O[C@H]7[C@H](O)[C@@H](O)[C@@H](O[C@H]8[C@H](O)[C@@H](O)[C@@H](O[C@H]1[C@H](O)[C@H]2O)O[C@@H]8CO)O[C@@H]7CO)O[C@@H]6CO)O[C@@H]5CO)O[C@@H]4CO)O[C@@H]3CO` [β-cyclodextrin]: the “Inhibition of adsorption, cyclodextrin in place of α-cyclodextrin (in words)” value (“Inhibition of adsorption, cyclodextrin” below) was “Approximately equivalent results”. For `OC[C@H]1O[C@@H]2O[C@H]3[C@H](O)[C@@H](O)[C@@H](O[C@H]4[C@H](O)[C@@H](O)[C@@H](O[C@H]5[C@H](O)[C@@H](O)[C@@H](O[C@H]6[C@H](O)[C@@H](O)[C@@H](O[C@H]7[C@H](O)[C@@H](O)[C@@H](O[C@H]8[C@H](O)[C@@H](O)[C@@H](O[C@H]9[C@H](O)[C@@H](O)[C@@H](O[C@H]1[C@H](O)[C@H]2O)O[C@@H]9CO)O[C@@H]8CO)O[C@@H]7CO)O[C@@H]6CO)O[C@@H]5CO)O[C@@H]4CO)O[C@@H]3CO` [γ-cyclodextrin], the “Inhibition of adsorption, cyclodextrin” value was “Approximately equivalent results”.

`OC[C@H]1O[C@@H]2O[C@H]3[C@H](O)[C@@H](O)[C@@H](O[C@H]4[C@H](O)[C@@H](O)[C@@H](O[C@H]5[C@H](O)[C@@H](O)[C@@H](O[C@H]6[C@H](O)[C@@H](O)[C@@H](O[C@H]7[C@H](O)[C@@H](O)[C@@H](O[C@H]8[C@H](O)[C@@H](O)[C@@H](O[C@H]9[C@H](O)[C@@H](O)[C@@H](O[C@H]%10[C@H](O)[C@@H](O)[C@@H](O[C@H]1[C@H](O)[C@H]2O)O[C@@H]%10CO)O[C@@H]9CO)O[C@@H]8CO)O[C@@H]7CO)O[C@@H]6CO)O[C@@H]5CO)O[C@@H]4CO)O[C@@H]3CO` [δ-cyclodextrin]: the “Inhibition of adsorption, cyclodextrin” value was “Approximately equivalent results”. Consider hydroxyethylated cyclodextrin, for which the “Inhibition of adsorption, cyclodextrin” value was “Approximately equivalent results”. Turning to methylated cyclodextrin, the “Inhibition of adsorption, cyclodextrin” value was “Approximately equivalent results”.
